Experimental data published in patent US20140056834A1, “COSMETIC COMPOSITION COMPRISING CHRYSOPHANOL AS ACTIVE INGREDIENT FOR SKIN WHITENING” (PUKYONG NATIONAL UNIVERSITY INDUSTRY-UNIVERSITY C, priority 2012, published 2014).

Tests used:
[1] = test system: B16F1 cells; assay: Melanin content in α-MSH-stimulated B16F1 cells; type: cell-based, mouse; details: α-MSH 100 nM, 72 h
Protocol: The melanin content was determined in accordance a procedure described previously (Hosoi et al., 1985) with slight modifications.
Briefly, B16F1 cells were seeded at a density of 2×10^4 cells per well in 24-well culture plates and then incubated for 24 h. Then, cells were treated with various concentrations ([…]) of chrysophanol. After 1 h, α-MSH (100 nM) was added and incubated for 72 h. Then, cells were washed twice with PBS and dissolved in 1 N NaOH by 30 min of boiling at 60° C. The cell lysates were centrifuged for 5 min at 5000 g and absorbance of the supernatant was measured at 405 nm.

[2] = test system: mushroom tyrosinase; assay: Mushroom tyrosinase assay (tyrosinase inhibitory activity); type: biochemical; details: L-tyrosine substrate, different concentrations, 30 min at 37° C.
Protocol: The inhibitory effect on tyrosinase was measured using the spectrophotometric method, based on the hydroxylation of […] in mushroom tyrosinase assay.
A total of 10 μl of each chrysophanol with different concentrations and 20 μl of mushroom tyrosinase (1000 units/ml) in 50 mM phosphate buffer (pH 6.5) were added to 170 μl of an assay mixture containing a ratio of 10:10:9 of 1 mM L-tyrosine solution, 50 mM phosphate buffer (pH 6.5), and distilled water in a 96-well microplate. After 30 min of incubation at 37° C., the absorbance of the mixture was determined at 490 nm using a microplate reader (Tecan Austria GmbH, Austria).

[3] = test system: tyrosinase protein in mouse melanoma B16F1 cells; assay: Tyrosinase protein expression by western blot analysis; type: cell-based; details: α-MSH
Protocol: For the western blot analysis, B16F1 cells were treated with different concentrations of chrysophanol compound, added with α-MSH, incubated for a predetermined time, and then the cells were lysed with RIPA buffer (Sigma-Aldrich Corp., St. Louis, USA) and centrifuged. After the centrifugation, the same amount (15 μg) of protein in cell lysate supernatants were analyzed on 10% SDS-PAGE and proteins were blotted on an immuno-blot nitro-cellulose membrane and blocked with 5% BSA in TBS containing 0.1% Tween 20 (TBS-T) for at least 1 h and hybridized with the primary monoclonal antibodies (Santa Cruz Biotechnology Inc., CA, USA). All the primary monoclonal antibodies were diluted with TBS-T (1:1000). The protein bindings were detected using the secondary antibody conjugated to horseradish peroxidase and enhanced using chemiluminiscence ECL assay kit (Amersham Pharmacia Biosciences, England, UK) according to the manufacturer's instructions and imaged on a LAS-3000® Luminescent image analyzer (Fujifilm, Life Science, Tokyo, Japan). T

[4] = test system: B16F1 cells; assay: Determination of cytotoxicity by MTT method; type: cell-based, mouse; details: 10 and 50 μM, 24 h incubation
Protocol: The mouse melanoma B16F1 cells were acquired from the American Type Culture Collection (ATCC, Manassas, Va.) and were cultured in Dulbecco's modification of eagle's medium (DMEM, GIBCO, New York, USA) containing 100 μg/ml penicillin-streptomycin, […] fetal bovine serum (FBS) and maintained at 37° C., 5% CO2. Cytotoxicity levels of the isolated chrysophanol compound from Microsporum sp. on B16F1 cells were measured using MTT (3-(4,5-dimethyl[…])-2,5-diphenyltetrazolium bromide) method. Briefly, B16F1 cells were cultured in 96-well plates at a density of 5×10^3 cells/well. After 24 h, cells were treated with different concentrations (10, 50, 100 μM) of chrysophanol compound. After the next 24 h of incubation, cells were washed two times with PBS and 100 μl of MTT solution (1 mg/ml) was added to each well. After next 4 h of incubation, MTT solution in each well was removed and then 100 μl of dimethyl-sulfoxide (DMSO) were added to solubilize the formazan salt. The optical density was measured at 540 nm by using UV microplate reader (Tecan Austria GmbH, Groedig, Austria). Relative cell viability was calculated compared to the non-treated blank group.

Structure (SMILES): Cc1cc(O)c2c(c1)C(=O)c1cccc(O)c1C2=O [chrysophanol]
- melanin content compared with positive control kojic acid ([1]; B16F1 cells, 50 μM): almost the same as that of kojic acid
- melanin content ([1]; B16F1 cells, 5, 10, 50 μm chrysophanol): decrease in melanin content in B16F1 cells by the treatment of chrysphanol in a dose-dependent manner
- tyrosinase inhibitory activity [2]: tyrosinase inhibitory activity was observed by chrysophanol in a dose-dependent manner
- tyrosinase protein expression ([3]; 20 μM): significantly inhibited expression of tyrosinase protein
- tyrosinase protein expression ([3]; different concentrations): dose-dependent inhibition of tyrosinase protein expression
- cytotoxicity (relative cell viability, MTT) [4]: no cytotoxicity
